From patent US11072741B2, “Optically anisotropic layer, method for producing the optically anisotropic layer, a laminate, polarizing plate, display device, liquid crystal compound, method for producing the liquid crystal compound, and carboxylic acid compound” (FUJIFILM Corporation, priority 2014, dated 2021) come the findings set out here.

Data set [1] in a line: Measurement and evaluation of solubility in MEK and CPN. Further details: key to Solubility Evaluation: A: solubility improved twofold or greater in plural solvents or a single solvent; B: solubility was the same or improved up to twofold in plural solvents or a single solvent; C: no improvement in solubility in plural solvents or a single solvent. Particulars: for Solubility CPN wt %: cyclopentanone; for Solubility CPN wt % / Solubility MEK wt %: room temperature, visual observation, 5 wt % increments; for Solubility MEK wt %: methyl ethyl ketone; for Solubility Evaluation: versus comparative compound with the same Ar and side chain portion of Formula (Ia). In kind it is physicochemical. Here is the method:
Solubility measurements of the synthesized liquid crystal compounds were conducted by the following method. 50 mg of each compound was weighted into a 1.5 mL sample bottle, and solvent was added until the solid component became 40 wt % (75 mg). The solubility was determined to be 40 wt % if clear under visual observation after shaking well manually at room temperature. If undissolved residue was present, solvent was added such that the solid component became 35 wt % (+18 mg). The solubility was determined to be 35 wt % if clear under visual observation after shaking well manually at room temperature. If undissolved residue was present, solvent was added such that the solid component became 30 wt %. Similar operations were performed in increments of 5 wt %, and repeated until the solid component became 5 wt %. If undissolved residue was present, the solubility was determined to be less than 5 wt % (<5 wt %), and measurements were completed. MEK (methyl ethyl ketone) and CPN (cyclopentanone) were utilized as solvents for measuring solubility.
The measured values of solubility were evaluated. The evaluations were conducted by using solubility of a compound of a Comparative Example having Ar (the aromatic ring at the center of General Formula 1) in common with the Examples and a side chain portion represented by Formula (Ia) as a reference, in a manner similar to that in the evaluation of the phase transition temperature. Evaluations of A through C were assigned according to the degree of improvement in solubility from the reference solubility.
(§1) For example, compound (I-1) and (I-2) were compared to Comparative Compound (Ia-1), and Compound (III-3) was compared to Comparative Compound (IIIa-3). The evaluation was carried out based on the following criteria.
A: solubility improved twofold or greater in plural solvents or a single solvent
B: solubility was the same or improved up to twofold in plural solvents or a single solvent
C: no improvement in solubility in plural solvents or a single solvent

The nature of data set [2]: Evaluation of phase transition temperature by polarizing microscope. Type of data set: physicochemical. Particulars: for TNi(° C.) Isotropic Phase Transition Point / Tsm—N(° C.) Sm—N Transition Point: during temperature increase; for Phase Transition Temperature Evaluation of Decrease: versus comparative compound with the same Ar and side chain portion of Formula (Ia).
From the text: Here, the temperature at which the compound transitions from the smectic phase to the nematic phase may be easily measured by observation of the composition employing polarized light microscopy. For example, in the nematic phase, a schlieren texture specific to the nematic phase is observed, while the texture transitions to a focal conic fan texture in a smectic A phase. Therefore, the phase transition temperature can be measured by observing the textures with a polarizing microscope while increasing or decreasing the temperature.
The phase transition temperatures of the synthesized liquid crystal compounds of the Examples and Comparative Examples were observed using a polarizing microscope to evaluate the degrees of temperature decrease. Specifically, the compounds of the Examples were compared to the compounds of the Comparative Examples, which have different structures for the side chain portions thereof. That is, the phase transition temperature of a compound of a Comparative Example having Ar (the aromatic ring at the center of General Formula 1) in common with the Examples and a side chain portion represented by Formula (Ia) below was used as a reference. Evaluations of A through C were assigned according to the degree of temperature decrease from the reference phase transition temperature.
as §1
A: decrease in melting point or Sm-N (smectic-nematic) transition temperature is 20° C. or greater
B: decrease in melting point or Sm-N (smectic-nematic) transition temperature is 5° C. or greater and less than 20° C.
C: decrease in melting point or Sm-N (smectic-nematic) transition temperature is less than 5° C.
With respect to the phase transition temperature, the numerical value in parentheses represents the numerical value during temperature decrease, and other numerical values represent a numerical value during temperature increase.

For the compound `C=CC(=O)OCCCCOC(=O)[C@H]1CC[C@H](C(=O)O[C@H]2CC[C@H](C(=O)Oc3ccc(OC(=O)[C@H]4CC[C@H](OC(=O)[C@H]5CC[C@H](C(=O)OCCCCOC(=O)C=C)CC5)CC4)c4c3SC(=C(C#N)C#N)S4)CC2)CC1` [Ib-1], the melting point (usually the temperature, or range, at which the solid turns liquid) was found to be 170 °C. In data set [1], the “Solubility CPN wt %” value is 10 wt %, the “Solubility MEK wt %” value is on record as under 5 wt % and the “Solubility Evaluation” value was “C”. Also, in data set [2], the “TNi(° C.) Isotropic Phase Transition Point” value was 206 °C and the “Phase Transition Temperature Evaluation of Decrease” value is recorded as “C (decrease in melting point or Sm-N (smectic-nematic) transition temperature is less than 5° C.)”.

For the compound `C=CC(=O)OCCCCOc1ccc(C(=O)Oc2ccc(C(=O)Oc3ccc(OC(=O)c4ccc(OC(=O)c5ccc(OCCCCOC(=O)C=C)cc5)cc4)c4c3SC(=C(C#N)C#N)S4)cc2)cc1` [Ic-1], the melting point stood at 185 °C. Also, in data set [1], the “Solubility CPN wt %” value was under 10 wt %, the “Solubility MEK wt %” value is given as under 5 wt % and the “Solubility Evaluation” value was “C”. Moreover, in data set [2], the “TNi(° C.) Isotropic Phase Transition Point” value is >210^ ° C and the “Phase Transition Temperature Evaluation of Decrease” value is listed as “C (decrease in melting point or Sm-N (smectic-nematic) transition temperature is less than 5° C.)”.

`C=CC(=O)OCCOC(=O)CCC(=O)OCCc1ccc(OC(=O)[C@H]2CC[C@H](C(=O)Oc3ccc(OC(=O)[C@H]4CC[C@H](C(=O)Oc5ccc(CCOC(=O)CCC(=O)OCCOC(=O)C=C)cc5)CC4)c(/C=N/Nc4nc5ccccc5s4)c3)CC2)cc1` [VI-1]: the melting point worked out at 134 °C. In data set [1], the “Solubility CPN wt %” value came to 35 wt %, the “Solubility MEK wt %” value was 20 wt % and the “Solubility Evaluation” value was “A (solubility improved twofold or greater in plural solvents or a single solvent)”. Also, in data set [2], the “TNi(° C.) Isotropic Phase Transition Point” value was 190 °C and the “Phase Transition Temperature Evaluation of Decrease” value was “A (decrease in melting point or Sm-N (smectic-nematic) transition temperature is 20 °C or greater)”.

On to `C=CC(=O)OCCOC(=O)CCC(=O)OCCc1ccc(OC(=O)[C@H]2CC[C@H](C(=O)Oc3ccc(OC(=O)[C@H]4CC[C@H](C(=O)Oc5ccc(CCOC(=O)CCC(=O)OCCOC(=O)C=C)cc5)CC4)c4sc(=S)sc34)CC2)cc1` [VI-7], for which the melting point was determined as 123 °C. For the same compound, in data set [1], the “Solubility CPN wt %” value worked out at 25 wt %, the “Solubility MEK wt %” value is listed as 15 wt % and the “Solubility Evaluation” value was “B (solubility was the same or improved up to twofold in plural solvents or a single solvent)”. Further, in data set [2], the “TNi(° C.) Isotropic Phase Transition Point” value is 145 °C, the “Tsm—N(° C.) Sm—N Transition Point” value turned out to be 137 °C and the “Phase Transition Temperature Evaluation of Decrease” value was “A (decrease in melting point or Sm-N (smectic-nematic) transition temperature is 20 °C or greater)”.

On to `C=CC(=O)OCCCCCCOc1ccc(OC(=O)[C@H]2CC[C@H](C(=O)Oc3ccc(OC(=O)[C@H]4CC[C@H](C(=O)Oc5ccc(OCCCCCCOC(=O)C=C)cc5)CC4)c(/C=N/Nc4nc5ccccc5s4)c3)CC2)cc1` [VIa-1], for which the melting point was 163 °C. Also, in data set [1], the “Solubility CPN wt %” value worked out at 20 wt % and the “Solubility MEK wt %” value is listed as 10 wt %. Besides, the “TNi(° C.) Isotropic Phase Transition Point” value in data set [2] stood at 279 °C.

The compound `C=CC(=O)OCCCCCCOc1ccc(OC(=O)[C@H]2CC[C@H](C(=O)Oc3ccc(OC(=O)[C@H]4CC[C@H](C(=O)Oc5ccc(OCCCCCCOC(=O)C=C)cc5)CC4)c4sc(=S)sc34)CC2)cc1` [VIa-7] registered a melting point of 124 °C. Further, in data set [1], the “Solubility CPN wt %” value is reported as 20 wt % and the “Solubility MEK wt %” value was under 10 wt %. In addition, in data set [2], the “TNi(° C.) Isotropic Phase Transition Point” value turned out to be 247 °C and the “Tsm—N(° C.) Sm—N Transition Point” value worked out at 164 °C.
